Structures can show the parent of a compound that is named as a salt. Where two headings read alike, the source gives them in different places.
Experiments:
Type in all cases: cell-based
HTT mRNA = assay: Splicing assay (RT-qPCR) monitoring HTT canonical junction (CJ) and alternative junction (AJ) mRNA isoforms
Procedure: Compounds described herein were used to modulate RNA transcript abundance in cells. The expression of a target mRNA was measured by detecting the formation of an exon-exon junction in the canonical transcript (CJ). A compound mediated exon-inclusion event was detected by observing an increase in formation of a new junction with an alternative exon (AJ). Real-time qPCR assays were used to detect these splicing switches and interrogate the potency of various compounds towards different target genes. A high-throughput real time quantitative PCR (RT-qPCR) assay was developed to measure these two isoforms of the mRNA (CJ and AJ) for an exemplary gene, HTT, together with a control housekeeping gene, GAPDH or GUSB or PPIA, used for normalization. Briefly, the A673 or K562 cell line was treated with various compounds described herein (e.g., compounds of Formula (I)). After treatment, the levels of the HTT mRNA targets were determined from each sample of cell lysate by cDNA synthesis followed by qPCR.
• Cells-to-CT 1-step kit: ThermoFisher A25602, Cells-to-CT lysis reagent: ThermoFisher 4391851C, TaqMan™ Fast Virus 1-Step Master Mix: ThermoFisher 4444436 • GAPDH: VIC-PL, ThermoFisher 4326317E (Assay: Hs99999905_m1)—used for K562/suspension cell lines • GUSB: VIC-PL, ThermoFisher 4326320E (Assay: Hs99999908_m1)—used for K562/suspension cell lines • PPIA: VIC-PL, ThermoFisher 4326316E (Assay: Hs99999904_m1) — used for A673/adherent cell lines
The A673 cell line was cultured in DMEM with 10% FBS. Cells were diluted with full growth media and plated in a 96-well plate (15,000 cells in 100 ul media per well). The plate was incubated at 37° C. with 5% CO2 for 24 hours to allow cells to adhere. An 11-point 3-fold serial dilution of the compounds was made in DMSO then diluted in media in an intermediate plate. Compounds were transferred from the intermediate plate to the cell plate with the top dose at a final concentration of 10 uM in the well. Final DMSO concentration was kept at or below 0.25%. The cell plate was returned to the incubator at 37° C. with 5% CO2 for an additional 24 hours.
The K562 cell line was cultured in IMDM with 10% FBS. For K562, cells were diluted with full growth media and plated in either a 96-well plate (50,000 cells in 50 uL media per well) or a 384-well plate (8,000-40,000 cells in 45 uL media per well). An 11-point 3-fold serial dilution of the compounds were made in DMSO then diluted in media in an intermediate plate. Compound was transferred from the intermediate plate to the cell plate with the top dose at a final concentration of 10 uM in the well. Final DMSO concentration was kept at or below 0.25%. Final volume was 100 uL for 96-well plate and 50 uL for 384-well plate. The cell plate was then placed in an incubator at 37° C. with 5% CO2 for 24 hours.
The cells were then gently washed with 50 uL-100 uL cold PBS before proceeding to addition of lysis buffer. 30 uL-50 uL of room temperature lysis buffer with DNAse I (and optionally RNAsin) was added to each well. Cells were shaken/mixed thoroughly at room temperature for 5-10 minutes for lysis to take place and then 3 uL-5 uL of room temperature stop solution was added and wells were shaken/mixed again. After 2-5 minutes, the cell lysate plate was transferred to ice for RT-qPCR reaction setup. The lysates could also be frozen at −80° C. for later use.
In some cases, a direct lysis buffer was used. An appropriate volume of 3× lysis buffer (10 mM Tris, 150 mM NaCl, 1.5%-2.5% Igepal and 0.1-1 U/uL RNAsin, pH 7.4) was directly added to either K562 or A673 cells in media and mixed by pipetting 3 times. The plates were then incubated at room temperature with shaking/rocking for 20-50 minutes to allow for lysis to take place. After this time, the cell lysate plate was transferred to ice to set up for the RT-qPCR reactions. The lysates could also be frozen at −80° C. for later use. […]

HTT CJ mRNA = assay: Gene panel canonical junction qPCR assay, HTT; conditions: read-out: HTT IC50
Procedure: (§1) The expression of a target mRNA was measured by detecting the formation of an exon-exon junction in the canonical transcript (CJ). A compound mediated exon-inclusion event was detected by observing an increase in formation of a new junction with an alternative exon (AJ). Real-time qPCR assays were used to detect these splicing switches and interrogate the potency of various compounds towards different target genes. A high-throughput real time quantitative PCR (RT-qPCR) assay was developed to measure these two isoforms of the mRNA (CJ and AJ) for an exemplary gene, HTT, together with a control housekeeping gene, GAPDH or GUSB or PPIA, used for normalization. Briefly, the A673 or K562 cell line was treated with various compounds described herein (e.g., compounds of Formula (I)). After treatment, the levels of the HTT mRNA targets were determined from each sample of cell lysate by cDNA synthesis followed by qPCR. The A673 cell line was cultured in DMEM with 10% FBS. Cells were diluted with full growth media and plated in a 96-well plate (15,000 cells in 100 ul media per well). The plate was incubated at 37° C. with 5% CO2 for 24 hours to allow cells to adhere. An 11-point 3-fold serial dilution of the compounds was made in DMSO then diluted in media in an intermediate plate. Compounds were transferred from the intermediate plate to the cell plate with the top dose at a final concentration of 10 uM in the well. Final DMSO concentration was kept at or below 0.25%. The cell plate was returned to the incubator at 37° C. with 5% CO2 for an additional 24 hours. The K562 cell line was cultured in IMDM with 10% FBS. For K562, cells were diluted with full growth media and plated in either a 96-well plate (50,000 cells in 50 uL media per well) or a 384-well plate (8,000-40,000 cells in 45 uL media per well). An 11-point 3-fold serial dilution of the compounds were made in DMSO then diluted in media in an intermediate plate. Compound was transferred from the intermediate plate to the cell plate with the top dose at a final concentration of 10 uM in the well. Final DMSO concentration was kept at or below 0.25%. Final volume was 100 uL for 96-well plate and 50 uL for 384-well plate. The cell plate was then placed in an incubator at 37° C. with 5% CO2 for 24 hours. The cells were then gently washed with 50 uL-100 uL cold PBS before proceeding to addition of lysis buffer. 30 uL-50 uL of room temperature lysis buffer with DNAse I (and optionally RNAsin) was added to each well. Cells were shaken/mixed thoroughly at room temperature for 5-10 minutes for lysis to take place and then 3 uL-5 uL of room temperature stop solution was added and wells were shaken/mixed again. After 2-5 minutes, the cell lysate plate was transferred to ice for RT-qPCR reaction setup. The lysates could also be frozen at −80° C. for later use. In some cases, a direct lysis buffer was used. An appropriate volume of 3× lysis buffer (10 mM Tris, 150 mM NaCl, 1.5%-2.5% Igepal and 0.1-1 U/uL RNAsin, pH 7.4) was directly added to either K562 or A673 cells in media and mixed by pipetting 3 times. The plates were then incubated at room temperature with shaking/rocking for 20-50 minutes to allow for lysis to take place. After this time, the cell lysate plate was transferred to ice to set up for the RT-qPCR reactions. The lysates could also be frozen at −80° C. for later use. To set up 10 uL RT-qPCR reactions, cell lysates were transferred to 384-well qPCR plates containing the master mix according to the table below. The plates were sealed, gently vortexed, and spun down before the run. The volumes were adjusted accordingly in some instances where the reaction was carried in 20 uL. The table below summarizes the components of the RT-qPCR reactions: The RT-qPCR reaction was performed using a QuantStudio (ThermoFisher) under the following fast cycling conditions. All samples and standards were analyzed at least in duplicate.

SMN2 CJ mRNA = assay: Gene panel canonical junction qPCR assay, SMN2; conditions: read-out: SMN2 IC50
Procedure: as §1

Target C CJ mRNA = assay: Gene panel canonical junction qPCR assay, Target C; conditions: read-out: Target C IC50
Procedure: as §1

[1] = decrease in CJ mRNA (50% response), A673 or K562 cells, 24 h treatment, top dose 10 uM, read-out: HTT CJ AC50
[2] = increase in AJ mRNA (50% response), A673 or K562 cells, 24 h treatment, top dose 10 uM, read-out: HTT AJ AC50
[3] = decrease in CJ mRNA levels, gene panel

Compound	IC50 (HTT CJ mRNA; [3])	IC50 (SMN2 CJ mRNA; [3])	IC50 (Target C CJ mRNA; [3])	AC50 (HTT mRNA; [1])	AC50 (HTT mRNA; [2])	AC50 (HTT mRNA; 24 h, read-out: HTT AJ AC50 (nM))	AC50 (HTT mRNA; 24 h, read-out: HTT CJ AC50 (nM))	IC50 (HTT CJ mRNA)	IC50 (SMN2 CJ mRNA)	IC50 (Target C CJ mRNA)
CN(c1ccc2c(=O)n(-c3ccc4nn(C)cc4c3)cnc2c1)C1CCNCC1 [Compound 180, 7-(methyl(piperidin-4-yl)amino)-3-(2-methyl-2H-indazol-5-yl)quinazolin-4(3H)-one, hydrochloride]	> 10000 nM	> 10000 nM	1000 to 10000 nM	> 10000 nM	> 10000 nM					
Cc1cn2nc(-c3ccc4c(c3)CCN(C3CCNC3)C4=O)cc(C)c2n1 (stereo not drawn) [Compound 269, 6-{2,8-dimethylimidazo[1,2-b]pyridazin-6-yl}-2-(pyrrolidin-3-yl)-3,4-dihydroisoquinolin-1-one]	> 10000 nM	1000 to 10000 nM	> 10000 nM	> 10000 nM	> 10000 nM					
Cc1cn2nc(-c3ccc4c(=O)n(C5CCNCC5)ncc4c3)cc2c(C)n1 [Compound 260]	100 to 1000 nM	100 to 1000 nM	1000 to 10000 nM	100 to 1000 nM	100 to 1000 nM					
Cc1cn2cc(-c3ccc4c(=O)n(C5CCN(C)CC5)cnc4c3)nc2c(C)n1 [Compound 302]	1000 to 10000 nM	100 to 1000 nM	1000 to 10000 nM	1000 to 10000 nM	1000 to 10000 nM					
Cc1nc2c(F)cc(-c3ccc4c(=O)n(C5CCN(C)CC5)cnc4c3)cc2o1 [Compound 300]	100 to 1000 nM	< 100 nM	1000 to 10000 nM	100 to 1000 nM	1000 to 10000 nM					
CN1CCC(Nc2ccc3c(=O)n(-c4ccc5nn(C)cc5c4)cnc3c2)CC1 [Compound 163, 3-(2-methyl-2H-indazol-5-yl)-7-((1-methylpiperidin-4-yl)amino)quinazolin-4(3H)-one]						> 10000 nM	> 10000 nM	> 10000 nM	> 10000 nM	> 10000 nM
Cc1nc2c(F)cc(-c3ccc4c(=O)n(C5CCNCC5)ncc4c3)cc2s1 [Compound 253]	1000 to 10000 nM	100 to 1000 nM	1000 to 10000 nM	1000 to 10000 nM	1000 to 10000 nM					
Cc1cn2cc(-c3ccc4c(=O)n(C5CCNCC5)ncc4c3)cc(C)c2n1 [Compound 257]	100 to 1000 nM	< 100 nM	1000 to 10000 nM	100 to 1000 nM	100 to 1000 nM					
Cn1cc2cc(-n3cnc4cc(C5=CC6CCC(C5)N6)ccc4c3=O)ccc2n1 (stereo not drawn) [Compound 160, 7-(8-azabicyclo[3.2.1]oct-2-en-3-yl)-3-(2-methyl-2H-indazol-5-yl)quinazolin-4(3H)-one]	> 10000 nM	> 10000 nM	> 10000 nM	> 10000 nM	> 10000 nM					

Now from value to compound, other results behind:

IC50 (HTT CJ mRNA; [3])	IC50 (SMN2 CJ mRNA; [3])	IC50 (Target C CJ mRNA; [3])	Compound	AC50 (HTT mRNA; [1])	AC50 (HTT mRNA; [2])	AC50 (HTT mRNA; 24 h, read-out: HTT AJ AC50 (nM))	AC50 (HTT mRNA; 24 h, read-out: HTT CJ AC50 (nM))	IC50 (HTT CJ mRNA)	IC50 (SMN2 CJ mRNA)	IC50 (Target C CJ mRNA)
100 to 1000 nM	< 100 nM	1000 to 10000 nM	Cc1cn2cc(-c3ccc4c(=O)n(C5CCNC(C)(C)C5)cnc4c3)cc(F)c2n1 (stereo not drawn) [Compound 237, 3-(2,2-dimethylpiperidin-4-yl)-7-(8-fluoro-2-methylimidazo[1,2-a]pyridin-6-yl)quinazolin-4(3H)-one]	100 to 1000 nM	100 to 1000 nM					
100 to 1000 nM	< 100 nM	100 to 1000 nM	Cc1cc(-c2ccc3c(=O)n(C4CCNCC4)ncc3c2)cc2cn(C)nc12 [Compound 251]	100 to 1000 nM	100 to 1000 nM					
< 100 nM	< 100 nM	100 to 1000 nM	Cc1nc2c(F)cc(-c3ccc4c(=O)n(C5CCNCC5)ncc4c3)cc2o1 [Compound 250]	< 100 nM	< 100 nM					
100 to 1000 nM	< 100 nM	100 to 1000 nM	Cc1nc2c(F)cc(-c3ccc4c(=O)n(C5CCNCC5)cnc4c3)cc2o1 [Compound 245]	100 to 1000 nM	100 to 1000 nM					
< 100 nM	< 100 nM	100 to 1000 nM	Cc1cc(-c2cc(F)c3c(=O)n(C4CCNCC4)cnc3c2)cc2cn(C)nc12 [Compound 232]	< 100 nM	< 100 nM					
100 to 1000 nM	< 100 nM	100 to 1000 nM	Cc1cn2cc(-c3ccc4c(=O)n(C5CCNCC5)cnc4c3)cc(F)c2n1 [Compound 205, 7-(8-fluoro-2-methylimidazo[1,2-a]pyridin-6-yl)-3-(piperidin-4-yl)quinazolin-4(3H)-one]	100 to 1000 nM	100 to 1000 nM					
